Test results as given in patent US20180221352A1, “3-(1H-PYRROLO[2,3-C]PYRIDIN-2-YL)-1H-PYRAZOLO[3,4-B]PYRIDINES AND THERAPEUTIC USES THEREOF” (Samumed, LLC, priority 2015, published 2018).

Experiments:
Format in all cases: cell-based
[1] = tested on: Wnt activity (Sp5-Luc reporter, SW480 colon carcinoma cells); assay: Wnt activity screening assay, Sp5-Luc reporter gene in SW480 cells; conditions: Homo sapiens; for EC50: Sp5-Luc reporter, SW480 cells, overnight incubation; for inhibition at 10 µM: SW480, read-out: percent inhibition at 10 μM
Text: The screening assay for Wnt activity is described as follows. Reporter cell lines can be generated by stably transducing cancer cell lines (e.g., colon cancer) or primary cells (e.g., IEC-6 intestinal cells) with a lentiviral construct that includes a Wnt-responsive promoter driving expression of the firefly luciferase gene.
SW480 colon carcinoma cells were transduced with a lentiviral vector expressing luciferase with a human Sp5 promoter consisting of a sequence of eight TCF/LEF binding sites. SW480 cells stably expressing the Sp5-Luc reporter gene and a hygromycin resistance gene were selected by treatment with 150 μg/mL of hygromycin for 7 days. These stably transduced SW480 cells were expanded in cell culture and used for all further screening activities. […] For Sp5-Luc reporter gene assays, the cells were plated at 4,000 cells/well in 384-well plates with medium containing 1% fetal bovine serum and incubated overnight at 37° C. and 5% CO2. Following incubation, 20 μl of BrightGlo luminescence reagent (Promega) was added to each well of the 384-well assay plates. The plates were placed on an orbital shaker for 2 min and then luminescence was quantified using the Envision (Perkin Elmer) plate reader. Readings were normalized to DMSO only treated cells, and normalized activities were utilized for EC50 calculations using the dose-response log (inhibitor) vs. response−variable slope (four parameters) nonlinear regression feature available in GraphPad Prism 5.0 (or Dotmatics).

[2] = tested on: primary human fibroblasts derived from IPF patients (LL29 cells); assay: Inhibition of fibrotic process, αSMA staining in TGF-β1 treated fibroblasts; conditions: Fibroblast; for EC50: 96 h, LL29 cells, TGF-β1 20 ng/mL, 4 days, % αSMA positive cells; for inhibition at 10 µM: read-out: percent inhibition at 10 μM
Protocol: Representative compounds were screened using primary human fibroblasts (derived from IPF patients) treated with TGF-β1 to determine their ability to inhibit the fibrotic process.
LL29 cells are plated at 1,500 cells/well in 80 μL/well F12 medium supplemented with 1% Fetal Bovine Serum. […] Wells treated with TGF-31 and containing DMSO were used as controls. […] Following incubation for 4 days, SYTOX green nucleic acid stain (Life Technologies [Thermo Fisher Scientific]) was added to the wells at a final concentration of 1 μM and incubated at room temperature for 30 min.

[3] = tested on: IL-6; assay: IL-6 inhibition in LPS-stimulated THP-1 cells (HTRF); conditions: Homo sapiens; for EC50: THP-1 cells, LPS 500 ng/mL, 22 hours, IL6 HTRF; for inhibition at 10 µM: THP-1, read-out: percent inhibition at 10 μM
Protocol: THP-1 cells were cultured in basal media with 1% FBS for 24 hours before the start of the assay. […] THP-1 cells were plated at 5000 cells/well in the 384-well plates and incubated at 37° C. for 2 h. 500 ng/mL of LPS was added after 2 hours and cells were incubated for another 22 hours at 37° C. Plates were spun in a centrifuge for 1 minute at […] and a mixture of anti-IL6 XL665, and anti-IL6 Cryptate diluted in reconstitution buffer (Cisbio Inc.) was added to each well. Following incubation for 3 hrs at room temperature, Homogeneous Time-Resolved Fluorescence (HTRF) was measured using the Envision (Perkin Elmer) at 665 nm and […]. The ratio of fluorescence at 665 nm to 620 nm was used as a readout for IL6 quantification. All samples were processed in duplicate. Readings were normalized to DMSO treated cells and normalized activities were utilized for EC50 calculations using the dose-response log (inhibitor) vs. response−variable slope (four parameters) nonlinear regression feature available in GraphPad Prism 5.0 (or Dotmatics).

[4] = tested on: SW480 colon cancer cells; assay: Cell viability assay (CellTiter-Blue); conditions: Homo sapiens; for EC50: 96 h, SW480 cell viability, four days; for inhibition at 10 µM: SW480, 96 h, read-out: percent inhibition at 10 μM
Protocol: Representative compounds were screened using the following assay procedure to assess the effect on cell viability as described below.
Approximately 2×10^3 SW480 colon cancer cells were seeded into each well and allowed to incubate in the presence or absence of compound for four days at 37° C./5% CO2. Eight replicates of DMSO-treated cells served as controls and cells treated with compound were performed in duplicate.
After incubation, 20 μL of CellTiter-Blue (Promega) was added to each well allowed to incubate for approximately 3 hours. This reagent was a buffered solution which contains resazurin, metabolically active cells were able to reduce rezarurin (blue) into resorufin (pink) which was highly fluorescent. This measured fluorescence was used as a readout for cell viability.

EC50 [1] [µM]	EC50 [3] [µM]	EC50 [4] [µM]	SMILES	EC50 [2] [µM]	inhibition at 10 µM [1] [%]	inhibition at 10 µM [3] [%]	inhibition at 10 µM [4] [%]	inhibition at 10 µM [2] [%]
9.12	6.43	4.09	O=C(Nc1cncc(-c2cnc3[nH]nc(-c4cc5c(N6CCCCC6)cncc5[nH]4)c3c2)c1)C1CCCCC1 [Compound 191, N-(5-(3-(4-(Piperidin-1-yl)-1H-pyrrolo[2,3-c]pyridin-2-yl)-1H-pyrazolo[3,4-b]pyridin-5-yl)pyridin-3-yl)cyclohexanecarboxamide]	5.63				
> 10	> 10	> 10	O=C(Nc1cncc(-c2cnc3[nH]nc(-c4cc5c(-c6cccc(F)c6)cncc5[nH]4)c3c2)c1)c1ccccc1 [Compound 11, N-(5-(3-(4-(3-Fluorophenyl)-1H-pyrrolo[2,3-c]pyridin-2-yl)-1H-pyrazolo [3,4-b]pyridin-5-yl)pyridin-3-yl)benzamide]	7.57	22.5	20.2	16.8	
> 10	2.52	> 10	c1ncc(-c2cnc3[nH]nc(-c4cc5c(-c6ccoc6)cncc5[nH]4)c3c2)cn1 [Compound 335, 3-(4-(Furan-3-yl)-1H-pyrrolo[2,3-c]pyridin-2-yl)-5-(pyrimidin-5-yl)-1H-pyrazolo[3,4-b]pyridine]	4.77	24.9		47	
7.28	> 10	2.6	Fc1ccc(-c2cncc3[nH]c(-c4n[nH]c5ncc(-c6cncc(OC7CCCCC7)c6)cc45)cc23)cc1 [Compound 527, 5-(5-(Cyclohexyloxy)pyridin-3-yl)-3-(4-(4-fluorophenyl)-1H-pyrrolo[2,3-c]pyridin-2-yl)-1H-pyrazolo[3,4-b]pyridine]	4.35		21.7		
1.16	0.199	> 10	Cn1cc(-c2cnc3[nH]nc(-c4cc5c(-c6cc(F)cc(CNS(C)(=O)=O)c6)cncc5[nH]4)c3c2)cn1 [Compound 764, N-(3-Fluoro-5-(2-(5-(1-methyl-1H-pyrazol-4-yl)-1H-pyrazolo[3,4-b]pyridin-3-yl)-1H-pyrrolo[2,3-c]pyridin-4-yl)benzyl)methanesulfonamide]	1.04			0	
> 10	> 10	> 10	CCC(=O)Nc1cncc(-c2cnc3[nH]nc(-c4cc5c(-c6cccnc6)cncc5[nH]4)c3c2)c1 [Compound 85, N-(5-(3-(4-(Pyridin-3-yl)-1H-pyrrolo[2,3-c]pyridin-2-yl)-1H-pyrazolo[3,4-b]pyridin-5-yl)pyridin-3-yl)propionamide]	> 10	9.3	34.1	10	44.2
> 10	> 10	3.68	c1ccc(-c2cnc3[nH]nc(-c4cc5c(-c6cccnc6)cncc5[nH]4)c3c2)nc1 [Compound 112, 5-(Pyridin-2-yl)-3-(4-(pyridin-3-yl)-1H-pyrrolo[2,3-c]pyridin-2-yl)-1H-pyrazolo[3,4-b]pyridine]	2.19	44.2	16.9		
3.73	0.437	7	CC(C)(C)CC(=O)Nc1cncc(-c2cnc3[nH]nc(-c4cc5c(-c6ccoc6)cncc5[nH]4)c3c2)c1 [Compound 324, N-(5-(3-(4-(Furan-3-yl)-1H-pyrrolo[2,3-c]pyridin-2-yl)-1H-pyrazolo[3,4-b]pyridin-5-yl)pyridin-3-yl)-3,3-dimethylbutanamide]	0.874				
9.46	3.4	4.14	CCNCc1cncc(-c2cnc3[nH]nc(-c4cc5c(N6CCCCC6)cncc5[nH]4)c3c2)c1 [Compound 174, N-((5-(3-(4-(Piperidin-1-yl)-1H-pyrrolo[2,3-c]pyridin-2-yl)-1H-pyrazolo [3,4-b]pyridin-5-yl)pyridin-3-yl)methyl)ethanamine]	3.61				
> 10	> 10	5.74	Fc1ccc(-c2cncc3[nH]c(-c4n[nH]c5ncc(-c6ccccn6)cc45)cc23)cc1 [Compound 56, 3-(4-(4-Fluorophenyl)-1H-pyrrolo[2,3-c]pyridin-2-yl)-5-(pyridin-2-yl)-1H-pyrazolo[3,4-b]pyridine]	> 10	15.5	25		38.2
2.94	3.47	1.44	O=C(Nc1cncc(-c2cnc3[nH]nc(-c4cc5c(-c6ccc(F)cc6)cncc5[nH]4)c3c2)c1)C1CCCCC1 [Compound 51, N-(5-(3-(4-(4-Fluorophenyl)-1H-pyrrolo[2,3-c]pyridin-2-yl)-1H-pyrazolo [3,4-b]pyridin-5-yl)pyridin-3-yl)cyclohexanecarboxamide]	1.18				
3.62	2.08	9.97	CC(C)C(=O)Nc1cncc(-c2cnc3[nH]nc(-c4cc5c(-c6ccoc6)cncc5[nH]4)c3c2)c1 [Compound 317, N-(5-(3-(4-(Furan-3-yl)-1H-pyrrolo[2,3-c]pyridin-2-yl)-1H-pyrazolo[3,4-b]pyridin-5-yl)pyridin-3-yl)isobutyramide]	1.69				
> 10	> 10	> 10	CS(=O)(=O)NCc1cc(F)cc(-c2cncc3[nH]c(-c4n[nH]c5ncc(-c6cncc(NC(=O)C7CCCCC7)c6)cc45)cc23)c1 [Compound 499, N-(5-(3-(4-(3-Fluoro-5-(methylsulfonamidomethyl)phenyl)-1H-pyrrolo[2,3-c]pyridin-2-yl)-1H-pyrazolo[3,4-b]pyridin-5-yl)pyridin-3-yl)cyclohexanecarboxamide]	> 10	12.3	32.4	9.9	28.5
